Like-named read-outs stand apart in the source and are kept apart here.
Key:
Type in all cases: in vivo
Lolium rigidum (LOLRI) [1] = test: Post-emergence herbicidal action against LOLRI; conditions: dosage 320 g/ha
Summary of the method: (§1)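 Post-emergence greenhouse spray, one-leaf stage, 600 l/ha water plus 0.5% additive; WP or EC formulations; application rates 320 g/ha or lower. Visual % damage vs untreated controls at ~3 weeks.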

[2] = system: Alopecurus myosuroides (ALOMY); test: Pre-emergence herbicidal action against ALOMY; conditions: 320 g/ha; scored visually after about 3 weeks; 100% = plants have died
Summary of the method: (§2)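 Read-out is visual percent damage relative to untreated pots, with 100% meaning dead plants and 0% meaning no difference, assessed roughly three weeks after treatment. Compounds were applied pre-emergence to the covering soil at up to 320 g/ha.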

Avena fatua (AVEFA) [3] = test: Post-emergence herbicidal action against AVEFA; conditions: visual rating about 3 weeks after treatment
Summary of the method: as §1

Brassica napus (BRSNW) = conditions: 80 g/ha, crop plant compatibility, in comparison to untreated controls
Summary of the method: (§3)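 Scoring: visual, % of untreated control, about 3 weeks after a pre-emergence application to the soil surface. Application used WP or EC formulations diluted in water with 0.5% additive at 600 l/ha; dosage levels are marked by suffixes a, b and c.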

Oryza sativa (ORYSA) [4] = conditions: pre-emergence, crop plant compatibility, in comparison to untreated controls
Summary of the method: as §3

[5] = system: Triticum aestivum (TRZAS); conditions: pre-emergence, 80 g/ha, crop plant compatibility, in comparison to untreated controls
Summary of the method: as §3

Zea mays (ZEAMX) [6] = conditions: pre-emergence, crop plant compatibility, in comparison to untreated controls
Summary of the method: as §3

Avena fatua (AVEFA) [7] = test: Pre-emergence herbicidal action against AVEFA; conditions: 320 g/ha, visual scoring after about 3 weeks vs untreated controls
Summary of the method: as §2

[8] = system: Polygonum convolvulus (POLCO); test: Pre-emergence herbicidal action against POLCO; conditions: dosage 320 g/ha
Summary of the method: as §2

Setaria viridis (SETVI) [9] = test: Pre-emergence herbicidal action against SETVI; conditions: dosage 320 g/ha
Summary of the method: as §2

Viola tricolor (VIOTR) [10] = test: Pre-emergence herbicidal action against VIOTR
Summary of the method: as §2

Setaria viridis (SETVI) [11] = test: Post-emergence herbicidal action against SETVI; conditions: dosage 320 g/ha
Summary of the method: as §1

[12] = system: Echinochloa crus-galli (ECHCG); test: Post-emergence herbicidal action against ECHCG
Summary of the method: as §1

[13] = system: Polygonum convolvulus (POLCO); test: Post-emergence herbicidal action against POLCO
Summary of the method: as §1

Zea mays (ZEAMX) [14] = conditions: crop plant compatibility, effect vs untreated controls
Summary of the method: (§4)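 Foliar application at the one-leaf stage: WP/EC formulation, 0.5% additive, 600 l/ha water. Greenhouse-grown in sandy loam. Endpoint is visual % injury relative to untreated controls at about 3 weeks.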

[15] = system: Verconica persica (VERPE); test: Post-emergence herbicidal action against VERPE; conditions: 320 g/ha, VERPE
Summary of the method: as §1

[16] = system: Amaranthus retroflexus (AMARE); test: Pre-emergence herbicidal action against AMARE; conditions: 320 g/ha, visual scoring after about 3 weeks vs untreated controls
Summary of the method: as §2

[17] = system: Alopecurus myosuroides (ALOMY); test: Post-emergence herbicidal action against ALOMY; conditions: 320 g/ha, visual rating about 3 weeks after treatment vs untreated controls (100% = plants have died, 0% = like control plants)
Summary of the method: as §1

[18] = system: Abutilon theophrasti (ABUTH); test: Post-emergence herbicidal action against ABUTH; conditions: 320 g/ha, visual rating about 3 weeks after treatment vs untreated controls (100% = plants have died, 0% = like control plants)
Summary of the method: as §1

Viola tricolor (VIOTR) [19] = test: Post-emergence herbicidal action against VIOTR; conditions: 320 g/ha
Summary of the method: as §1

[20] = system: Amaranthus retroflexus (AMARE); test: Post-emergence herbicidal action against AMARE
Summary of the method: as §1

Oryza sativa (ORYSA) [21] = conditions: crop plant compatibility, effect in comparison to untreated controls
Summary of the method: as §4

[22] = system: Triticum aestivum (TRZAS); conditions: crop plant compatibility, 80 g/ha, effect vs untreated controls
Summary of the method: as §4

Lolium rigidum (LOLRI) [23] = test: Pre-emergence herbicidal action against LOLRI; conditions: dosage 320 g/ha
Summary of the method: as §2

Glycine max (GLXMA) = conditions: pre-emergence, 80 g/ha, crop plant compatibility, in comparison to untreated controls
Summary of the method: as §3

[24] = system: Matricaria inodora (MATIN); test: Pre-emergence herbicidal action against MATIN
Summary of the method: as §2

[25] = 80 g/ha, visual rating about 3 weeks after treatment vs untreated controls (100% = plants have died, 0% = like control plants)
[26] = 320 g/ha, visual rating about 3 weeks after treatment

Row | Structure (SMILES) | Post-emergence action against LOLRI in % (Lolium rigidum (LOLRI) [1]) | Pre-emergence action against ALOMY [2] | Post-emergence action against AVEFA in % (Avena fatua (AVEFA) [3]; 320 g/ha) | Pre-emergence action against BRSNW in % (Brassica napus (BRSNW)) | Pre-emergence action against ORYSA in % (Oryza sativa (ORYSA) [4]; 80 g/ha) | Pre-emergence action against TRZAS in % [5] | Pre-emergence action against ZEAMX in % (Zea mays (ZEAMX) [6]; 80 g/ha) | Pre-emergence action against AVEFA in % (Avena fatua (AVEFA) [7]) | Pre-emergence action against SETVI in % (Setaria viridis (SETVI) [9]) | Pre-emergence action against VIOTR in % (Viola tricolor (VIOTR) [10]; 320 g/ha, Viola tricolor) | Post-emergence action against SETVI in % (Setaria viridis (SETVI) [11]) | Post-emergence action against ECHCG in % ([12]; dosage 320 g/ha) | Post-emergence action against POLCO in % ([13]; dosage 320 g/ha) | Post-emergence action against ZEAMX in % (Zea mays (ZEAMX) [14]; 80 g/ha) | Post-emergence action against VERPE in % [15] | Pre-emergence action against AMARE in % [16] | Post-emergence action against ALOMY in % [17] | Post-emergence action against VIOTR in % (Viola tricolor (VIOTR) [19]) | Post-emergence action against AMARE in % [20, 25] | Post-emergence action against AMARE in % [20, 26] | other results
1 | O=C(O)COc1nn(-c2ncccc2Cl)c(-c2ccc(F)nc2)c1Br [Example I-26] | 80% | 100% | 100% | 20% | 0% | 0% | 0% | 90% | 100% | 100% | 90% | 80% | 80% | 0% | 80% | 100% | 90% | 80% | 80% | 80% | Post-emergence action against AVEFA in % (Avena fatua (AVEFA) [3]; 80 g/ha): 100%; Pre-emergence action against POLCO in % [8]: 90%; Pre-emergence action against VIOTR in % (Viola tricolor (VIOTR) [10]; dosage 80 g/ha): 100%; Post-emergence action against ECHCG in % ([12]; dosage 80 g/ha): 80%; Post-emergence action against POLCO in % ([13]; dosage 80 g/ha): 80%; Post-emergence action against ABUTH in % [18]: 90%
2 | CCOC(=O)COc1nn(-c2ccnc(F)c2)c(-c2ccc(F)nc2)c1Br [III-01] | – | – | 80% | 0% | 0% | 0% | 10% | – | – | – | – | 80% | – | 0% | 80% | – | – | 80% | – | 80% | Pre-emergence action against ORYSA in % (Oryza sativa (ORYSA) [4]; 320 g/ha): 0%; Pre-emergence action against ZEAMX in % (Zea mays (ZEAMX) [6]; 320 g/ha): 20%; Post-emergence action against ORYSA in % (Oryza sativa (ORYSA) [21]; 80 g/ha): 0%; Post-emergence action against ORYSA in % (Oryza sativa (ORYSA) [21]; 320 g/ha): 0%; Post-emergence action against TRZAS in % [22]: 0%; Post-emergence action against ZEAMX in % (Zea mays (ZEAMX) [14]; 320 g/ha): 0%
3 | C[C@@H](Oc1nn(-c2ncccc2F)c(-c2ccc(F)nc2)c1F)C(=O)O [Example I-306] | 90% | 90% | 80% | – | – | – | 20% | 80% | 80% | 80% | 90% | 90% | 80% | – | 90% | 90% | 100% | 80% | 80% | 80% | Pre-emergence action against LOLRI in % (Lolium rigidum (LOLRI) [23]): 100%; Pre-emergence action against GLXMA in % (Glycine max (GLXMA)): 0%; Pre-emergence action against MATIN in % ([24]; dosage 80 g/ha): 90%; Pre-emergence action against MATIN in % ([24]; dosage 320 g/ha): 90%; Post-emergence action against ORYSA in % (Oryza sativa (ORYSA) [21]; 80 g/ha): 0%

— patent publication US20240041042A1, “1-(PYRIDYL)-5-AZINYLPYRAZOLE DERIVATIVES, AND THEIR USE FOR CONTROL OF UNDESIRED PLANT GROWTH” (Bayer Aktiengesellschaft, priority 2020, published 2024)
